We go through three compounds from US20210205195A1, “PRESERVED COMPOSITIONS” (Conopco, Inc., d/b/a UNILEVER, priority 2018, published 2021).

Assay [1] deals with Pseudomonas aeruginosa, Burkholderia cepacia, Strenotrophomonas sp. Put plainly: Modified Ph. Eur. 5.1.3 microbial challenge test in hair conditioner, Pool 1 (Gram negative non-fermenters). The assay is classed as cell-based. How it is done: (§1) Itaconic acid, lactic acid and citric acid were purchased from Sigma-Aldrich. Six samples of unpreserved conditioner were dosed with 0.5% and 1% (w/w) itaconic acid, citric acid and lactic acid separately. An unpreserved sample was kept as a control. Each dosed product was adjusted to pH 5 using 50% sodium hydroxide (Sigma-Aldrich). A modified challenge test to that of the European Pharmacopoeia (Ph. Eur. Or EP) 5.1.3 criteria was performed on a subsample of unpreserved and each dosed product. The microbial challenge pools were added to each sample container at a ratio of 1:100. The final concentration of inoculum in the product should be 5×10^6 CFU/G of test product. Each product is mixed with a sterile spatula to ensure a homogenous distribution of the inocula throughout the product. [table] Both the inoculum level and the level of microorganism within each sample was quantified using a Total Viable Count (TVC) pour plate method at 7, 14, 21 and 28 days. A 1:10 dilution was made with a subsample of each product, performed separately in Peptone (0.1%)/tween 80 (2%) neutralising agent. A 1:10 and 1:100 dilution of each subsample was performed and pour plates produced at each dilution using tryptone soya agar. Plates were incubated at 28° C. for 48 hours and then examined for growth. Visible colonies were counted with the aid of a Quebec Colony Counter and recorded for analysis against the challenge test criteria. During the removal of a subsample of product for TVC, a reinoculation is performed at 7 and 14 days, reintroducing 5×10^6 CFU/G of bacteria before mixing using a sterile spatula to homogenise the reinoculation. [table]

Assay [2] deals with Enterobacter cloacae, Klebsiella sp. Nature of the assay: Modified Ph. Eur. 5.1.3 microbial challenge test in hair conditioner, Pool 2 (Gram negative fermenters). The assay is classed as cell-based. How it is done: as §1
The mark [3] stands for this setting: 0.5% (w/w) in conditioner, pH 5, Pool 1, 7 days.
Where [4] appears, read: 0.5% (w/w) in conditioner, pH 5, Pool 1, 14 days.
[5] abbreviates: 0.5% (w/w) in conditioner, pH 5, Pool 1, 21 days.
Where [6] appears, read: 0.5% (w/w) in conditioner, pH 5, Pool 1, 28 days.
Setting [7] is: 1% (w/w) in conditioner, pH 5, Pool 1, 7 days.
Setting [8] is: 1% (w/w) in conditioner, pH 5, Pool 1, 14 days.
The mark [9] stands for this setting: 1% (w/w) in conditioner, pH 5, Pool 1, 21 days.
Where [10] appears, read: 1% (w/w) in conditioner, pH 5, Pool 1, 28 days.
The mark [11] stands for this setting: 0.5% (w/w) in conditioner, pH 5, Pool 2, 7 days.
[12] abbreviates: 0.5% (w/w) in conditioner, pH 5, Pool 2, 14 days.
Where [13] appears, read: 0.5% (w/w) in conditioner, pH 5, Pool 2, 21 days.
Setting [14] is: 0.5% (w/w) in conditioner, pH 5, Pool 2, 28 days.
The mark [15] stands for this setting: 1% (w/w) in conditioner, pH 5, Pool 2, 7 days.
Setting [16] is: 1% (w/w) in conditioner, pH 5, Pool 2, 14 days.
Where [17] appears, read: 1% (w/w) in conditioner, pH 5, Pool 2, 21 days.
Where [18] appears, read: 1% (w/w) in conditioner, pH 5, Pool 2, 28 days.

The structures appear in SMILES notation. Some results are limits rather than exact numbers.

As for `O=C(O)CC(O)(CC(=O)O)C(=O)O` [Citric acid, citric acid], the “Microbial Log reduction” value is listed as above 5.85 in assay [1] (setting [3]); above 5.89 in assay [1] (setting [4]); above 5.79 in assay [1] (setting [5]); above 5.79 in assay [1] (setting [6]); above 5.85 in assay [1] (setting [7]); above 5.89 in assay [1] (setting [8]). The “Microbial Log reduction” value in assay [1] (setting [9]) is above 5.79; in assay [1] (setting [10]), above 5.79; in assay [2] (setting [11]) it was 3.20; in assay [2] (setting [12]), 2.28; in assay [2] (setting [13]), below 2.82; in assay [2] (setting [14]) it was 2.72. In addition, the “Microbial Log reduction” value in assay [2] (setting [15]) is 4.67; in assay [2] (setting [16]) it was 2.86; in assay [2] (setting [17]), below 2.82; in assay [2] (setting [18]), 3.69.

Take `C=C(CC(=O)O)C(=O)O` [Itaconic acid]: the “Microbial Log reduction” value is on record as above 5.85 in assay [1] (setting [3]); above 5.89 in assay [1] (setting [4]); above 5.79 in assay [1] (setting [5]); above 5.79 in assay [1] (setting [6]); above 5.85 in assay [1] (setting [7]); above 5.89 in assay [1] (setting [8]). Besides, the “Microbial Log reduction” value is recorded as above 5.79 in assay [1] (setting [9]); above 5.79 in assay [1] (setting [10]); above 5.72 in assay [2] (setting [11]); above 5.61 in assay [2] (setting [12]); above 5.82 in assay [2] (setting [13]); above 5.82 in assay [2] (setting [14]). In addition, the “Microbial Log reduction” value in assay [2] (setting [15]) is above 5.72; in assay [2] (setting [16]), above 5.61; in assay [2] (setting [17]), above 5.82; in assay [2] (setting [18]) it was above 5.82.

For `CC(O)C(=O)O` (stereo not drawn) [Lactic acid, lactic acid], the “Microbial Log reduction” value in assay [1] (setting [3]) is on record as above 5.85; in assay [1] (setting [4]), above 5.89; in assay [1] (setting [5]), above 5.79; in assay [1] (setting [6]), above 5.79; in assay [1] (setting [7]) it was above 5.85; in assay [1] (setting [8]), above 5.89. The “Microbial Log reduction” value in assay [1] (setting [9]) is above 5.79; in assay [1] (setting [10]), above 5.79; in assay [2] (setting [11]) it was 3.73; in assay [2] (setting [12]), 3.70; in assay [2] (setting [13]), below 2.82; in assay [2] (setting [14]), below 2.82. The “Microbial Log reduction” value was found to be 3.69 in assay [2] (setting [15]), 3.58 in assay [2] (setting [16]), 4.02 in assay [2] (setting [17]) and 4.62 in assay [2] (setting [18]).
